From patent US8901157B2, “Compositions and methods of use of ritonavir for treating HCV” (AbbVie Inc., priority 2006, dated 2014)
Read-outs that look alike come from different tables or passages of the source. Values belong to the compound of their own block, whether it stands above or below them.

Columns and labels:
in vitro [1] = type: in vitro ADME; settings: human, pH 7.4, human liver microsomes, read-out: Percent Inhibition of Metabolism by Ritonavir
Procedure: (§1) Liquid handling was carried out on a Tecan EVO robotic system. Triplicate incubations were carried out at a final test compound concentration of 1 μM with 0.5 mg/ml microsomal protein, and 1 mM NADPH. Pooled human liver microsomes (1 mg/ml protein) and NADPH cofactor (2 mM) were prepared in 50 mM phosphate buffer at pH 7.4. Stock solutions (10 mM) of VX-950 or SCH 503034 were prepared in DMSO and then diluted to 100 μM in 1:1 acetonitrile/water. The solutions of compounds were added into the NADPH cofactor solution containing 0, 0.8 or 8 μM of ritonavir in a 2 ml 96-well plate. The resulting solution was added to the microsomes (1:1) that had been pre-incubated for 10 minutes at 37° C. Samples (0.1 ml) were incubated in 96-well plates at 37° C. for 0, 10, 20 and 30 min in a Tecan 4-slot incubator. At each time point, the robotic arm removed one of the replicate plates and the reactions were stopped by adding 1 volume (100 μl) of acetonitrile with internal standard (0.05 μM buspirone) to each well. All plates were centrifuged at 3500 rpm for 30 min, and the supernatant was transferred to a 96-well injection plate. The plates were stored at 4° C. until analyzed.
(§2) LC-MS/MS analysis: The samples were analyzed in positive mode using the turbospray ion source of PE/Sciex API 4000 Q-Trap mass spectrometer with Shimadzu HPLC system. Samples were injected (5 μL) onto a Lancer C18 column (5 μm, 30×2.1 mm) from Analytical Sales and Services Inc. (Pompton Plains, N.J.) and separation occurred via a gradient: The flow rate was 0.5 mL/min; starting conditions of 7.5% B, 2.5% C, increasing to 30% B and 10% C at 0.4 min. […] Mobile phase A was 95/5 water/methanol (v/v) with 10 mM ammonium acetate and 60 μL/L acetic acid. Mobile phase B was methanol containing 10 mM ammonium acetate and 60 μL/L acetic acid. Mobile phase C was acetonitrile.
Using the above conditions, the presence of ritonavir inhibited the metabolism of VX-950 and SCH 503034 in the following manner:
Metabolism of VX-950 and SCH 503034 in Human Liver Microsomes in the Absence or Presence of Ritonavir

in vitro [2] = type: in vitro ADME; settings: rat, pH 7.4, rat liver microsomes, read-out: Percent Inhibition of Metabolism by Ritonavir
Procedure: as §1, §2
Using the procedure of Example 1, but substituting rat liver microsomes for human liver microsomes, the presence of ritonavir inhibited the metabolism of VX-950 and SCH 503034 in the following manner: […]

[3] = Sprague-Dawley, rat, in vivo, 5 mg/kg
in vivo = settings: Sprague-Dawley, rat, 5 mg/kg
[4] = Pharmacokinetics of VX-950 in rats, with or without coadministered ritonavir; settings: rat; for half-life: Sprague-Dawley, plasma, 5 mg/kg
[5] = Pharmacokinetics of SCH 503034 in rats, with or without coadministered ritonavir; type: in vivo, Sprague-Dawley derived rats; settings: rat; for half-life: mean; for Cmax: po, 5 mg/kg; for C8 h: plasma at 8 h
[6] = PO 5 mg/kg, no ritonavir, mean (SEM), n=3
[7] = Sprague-Dawley, plasma, PO 5 mg/kg, no ritonavir, mean (SEM), n=3

SMILES: CCC[C@H](NC(=O)[C@@H]1[C@H]2CCC[C@H]2CN1C(=O)[C@@H](NC(=O)[C@@H](NC(=O)c1cnccn1)C1CCCCC1)C(C)(C)C)C(=O)C(=O)NC1CC1 [VX-950, 2-(2-{2-cyclohexyl-2[(pyrazine-2-carbonyl)-amino]-acetylamino}-3,3-dimethyl-butyryl)-octahydro-cyclopenta[c]pyrrole-1-carboxylic acid(1-cyclopropylaminooxalyl-butyl)-amide]
- inhibition at 1 μM (in vitro [1]; ritonavir 0 micromolar): 0%
- inhibition at 1 μM (in vitro [1]; ritonavir 0.4 micromolar): 72%
- inhibition at 1 μM (in vitro [1]; ritonavir 4.0 micromolar): 100%
- inhibition at 30 min, 1 μM (in vitro [2]; ritonavir 0 micromolar): 0%
- inhibition at 30 min, 1 μM (in vitro [2]; ritonavir 0.4 micromolar): 61%
- inhibition at 30 min, 1 μM (in vitro [2]; ritonavir 4.0 micromolar): 100%
- Vβ ([3]; iv): 8.1 (2.6) L/kg
- F ([3]; po): 34.8 (11.0) %
- C8 h ([3]; po, 8 h): 0.018
- AUC (in vivo; iv): 3030 ng·h/mL
- Vd (in vivo; iv): 2.4 L/kg
- clearance (in vivo; iv): 28.3 mL/min/kg
- AUC (in vivo; po): 1050 ng·h/mL
- Tmax (in vivo; po, Tmax): 1.1 h
- half-life ([4]; iv): 2.8 h
- half-life ([4]; po): 1.7 h
- Cmax [4, 6]: 0.43 (0.15) μg/ml

- AUC ([5]; Sprague-Dawley, plasma, IV 5 mg/kg, mean (SEM), n=3): 3120 ng·h/mL
- clearance ([5]; Sprague-Dawley, plasma, IV 5 mg/kg, mean (SEM), n=3, read-out: CLp (converted)): 34 mL/min/kg
- Vd ([5]; Sprague-Dawley, plasma, IV 5 mg/kg, mean (SEM), n=3, read-out: Vss): 0.53 L/kg
- half-life ([5]; Sprague-Dawley, plasma, IV 5 mg/kg, n=3): 0.3 h
- AUC [5, 7]: 110 ng·h/mL
- AUC(0-t) ([5]; Sprague-Dawley, plasma, PO+ = 5 mg/kg oral SCH 503034 + 5 mg/kg oral ritonavir, mean (SEM), n=3, read-out: AUC (0-8 hr AUC)): 2180 ng·h/mL
- half-life ([5]; Sprague-Dawley, plasma, PO+ = 5 mg/kg oral SCH 503034 + 5 mg/kg oral ritonavir, n=3): 2.5 h
- Cmax [5, 7]: 70 ng/mL
- Cmax ([5]; Sprague-Dawley, plasma, PO+ = 5 mg/kg oral SCH 503034 + 5 mg/kg oral ritonavir, mean (SEM), n=3): 520 ng/mL
- plasma levels on coadministering with ritonavir ([5]; 5 mg/kg oral SCH 503034 + 5 mg/kg oral ritonavir vs SCH 503034 alone, FIG. 3): substantially elevated
- Vβ ([5]; IV 5 mg/kg, mean (SEM), n=3): 0.92 (0.29) L/kg
- F [5, 6]: 3.5 (1.5) %
- C8 h ([5]; PO 5 mg/kg, no ritonavir): <0.001
- F ([5]; PO+ = 5 mg/kg oral SCH 503034 + 5 mg/kg oral ritonavir, mean (SEM), n=3): 70.1 (7.0) %
- C8 h ([5]; PO+ = 5 mg/kg oral SCH 503034 + 5 mg/kg oral ritonavir): 0.076
SMILES: CC(C)(C)NC(=O)N[C@H](C(=O)N1C[C@H]2[C@@H]([C@H]1C(=O)NC(CC1CCC1)C(=O)C(N)=O)C2(C)C)C(C)(C)C (some centres unmarked) [SCH 503034, 3-[2-(3-tert-butyl-ureido)-3,3-diemthyl-butyryl]-6,6-dimethyl-3-aza-bicyclo[3.1.0]hexane-2-carboxylic acid (2-carbamoyl-1-cyclobutylmethyl-2-oxo-ethyl)-amide]
